Laboratory results: patent US20080268533A1, “Methods and Compositions Utilizing Myc and Gsk3Beta to Manipulate the Pluripotency of Embryonic Stem Cells” (University of Georgia Research Foundation, Inc., priority 2004, published 2008)
Residues, ends and D or L forms follow the SMILES beside them. *: point of attachment. Cbz = O=C(OCc1ccccc1)*

Key:
[1] = test system: GSK3β^S9 phosphorylation; assay type: cell-based, murine; conditions: 6 hours, CA 2 nM, OA 2 nM
Experimental: MESCs and d2 EBs were treated for the short-term (6 hours) with phosphatase inhibitors of varying specificities.

[2] = test system: GSK3β; experiment: GSK3β nuclear localization in EBs after OA treatment (staining); assay type: cell-based, murine; conditions: OA added to EBs, short incubation; data not shown
Excerpt: A key issue relating to the understanding of self-renewal is determining how GSK3β activity is suppressed in ESCs but activated in cells committed to differentiate. […] The cytoplasmic localization of GSK3β in mESCs was corroborated by subcellular fractionation using hypotonic lysis (FIG. 3).
This mechanism accounts for the observed decline in phospho-S9 and activation of GSK3β that occurs during the early stages of differentiation. CA inhibits PP1 and PP2A in contrast to OA, which selectively targets PP2A. This implicated PP2A as a S9 phosphatase in this system. This is supported by experiments showing that PP2A complexes with GSK3 and c-myc in d2 EBs (FIG. 4C). […] While it is possible that nuclear GSK3β was degraded during OA treatment and nascent GSK3β retained in the cytoplasm, it is also likely that GSK3β is transported out of the nucleus in response to OA treatment since only short incubation periods were used and GSK3β is normally a stable protein. This would be consistent with a model where GSK3β localization is controlled by the phosphorylation status of S9. It is known that PP2A dephosphorylates S62 on c-myc, resulting in its degradation (Sears, (2004) Cell Cycle, 3(9):1133-7).

[3] = test system: c-myc; experiment: c-myc protein stability assay with proteosome inhibitor (immunoblot); assay type: cell-based, mouse; conditions: EBs (−LIF), MG132 5 μM, 3 hours prior to harvesting
Experimental: Cells were lysed by incubating for one hour on ice in lysis buffer consisting of 50 mM Hepes pH 7.5, 1 mM EDTA, 1 mM EGTA, 250 mM NaCl, 10% glycerol, 0.1% Tween-20, 10 μg/ml TPCK, 50 μg/ml TLCK, 170 μg/ml PMSF, 0.5 mg/ml leupeptin, 0.7 mg/ml pepstatin and phosphatase inhibitor cocktail II (Calbiochem) with occasional vortexing/pipetting. Whole cell extracts (20-40 μg total protein) were separated by 10% SDS-PAGE, transferred to nitrocellulose membranes (BioRad), blocked with 3% BSA in TBSE (Tris HCl pH 7.5, 150 mM NaCl, 2 mM EDTA and 0.1% NP40) and probed with the indicated antibodies at 4° C. The following antibodies were used: anti-c-myc (N-262; Santa Cruz), anti-Oct4 (N-19; Santa Cruz), anti-tubulin (Serotech), anti-HDAC1 (Zymed), anti-Cdk2 (M2; Santa Cruz), anti-GSK3β (Transduction Laboratories). The anti-HDAC1 antibody detects both HDAC1 and HDAC2 and accordingly, a doublet is seen by immunoblot analysis. An antibody that recognizes the T58 phosphorylated form of c-myc (T58/S62, Cell Signaling Technology) was used to evaluate the status of c-myc^T58. […]
If so, it was predicted that c-myc would have enhanced stability. To test this possibility, the stability of c-myc was determined in undifferentiated ES cells relative to other cell types where its stability is in the order of 30 minutes or less (Hann & Eisenman, (1984) Mol. Cell. Biol., 4:2486-2497). […]

[4] = test system: BG01 cells; experiment: LY 294002 induced definitive endoderm (DE) formation, Sox17 Q-PCR; assay type: cell-based, human; conditions: BG01 on matrigel in MEF-CM, 60 μM LY 294002, BIO approx. 0.1-5 μM, MeBIO approx. 1-5, 3-4 days, Sox17 mRNA by Q-PCR
Experimental: Q-PCT was performed using relative quantitation using SYBR Green chemistry on the Rotor Gene 3000 instrument (Corbett Research) and a two-step RT-PCR format. Primers were designed to lie over exon-exon boundaries or span introns of at least 800 bp when possible, as this has been empirically determined to eliminate amplification from contaminating genomic DNA.
Total RNA was isolated using RNeasy (Qiagen) and quantitated using RiboGreen (Molecular Probes). Reverse transcription from 350-500 ng of total RNA was carried out using the iScript reverse transcriptase kit (BioRad), which contains a mix of oligo-dT and random primers. Each 20 μL reaction was subsequently diluted up to 100 μL total volume and 3 μL was used in each 10 μL Q-PCR reaction containing 400 nM forward and reverse primers and 5 μL 2×SYBR Green master mix (Qiagen). Two step cycling parameters were used employing a 5 second denature at 85-94° C. (specifically selected according to the melting temp of the amplicon for each primer set) followed by a 45 second anneal/extend at 60° C. Fluorescence data was collected during the last 15 seconds of each extension phase. A three point, 10-fold dilution series was used to generate the standard curve for each run and cycle thresholds (Ct's) were converted to quantitative values based on this standard curve. The quantitated values for each sample were normalized to housekeeping gene performance and then average and standard deviations were calculated for triplicate samples. At the conclusion of PCR cycling, a melt curve analysis was performed to ascertain the specificity of the reaction. A single specific product was indicated by a single peak at the Tm appropriate for that PCR amplicon.
Both Cyclophilin G and GUS were used to calculate a normalization factor for all samples. The use of multiple HGs simultaneously reduces the variability inherent to the normalization process and increases the reliability of the relative gene expression values (Vandesompele et al., 2002, Genome Biol., 3:RESEARCH0034). […]

[5] = target: T1, GSK3β (Mus musculus, UniProt Q9WV60); experiment: GSK3β kinase assay on immunoprecipitate, MBP substrate; assay type: biochemical; conditions: day 6 EB lysates, inhibitor 3 μM in ethanol
T1 construct: endogenous in cells; host or cells: day 6 embryoid bodies derived from mouse ES cells (D3 / R1-EGFP)
Experimental: Cell lysate (300 μg total protein) was adjusted to 1 mg/ml with cell lysis buffer and tumbled with 3 μg of primary antibody for 3 hours at 4° C. 30 μL of protein A Sepharose beads were added and tumbled for a further 1 hour at 4° C. The beads were washed three times with 1 ml of cold lysis buffer and once with 1 ml of kinase buffer (50 mM Hepes pH 7.5, 10 mM MgCl2, 1 mM DTT, 2.5 mM EGTA and protease inhibitor cocktail II (Calbiochem)). Immune complexes bound to the PAS beads were resuspended in 30 μL of kinase buffer with or without the addition of GSK3β inhibitor II (3 μM in ethanol, Calbiochem) or ethanol and incubated at 30° C. for 20 minutes. 10 μCi of [γ-^32P] ATP and 5 μg of myelin basic protein (MBP, Upstate Biotech) was added and the reactions incubated at 30° C. for a further 20 minutes. Reactions were terminated by the addition of 2×SDS load buffer, heated at 95° C. for 2 minutes and resolved on a 12% SDS-polyacrylamide gel. Kinase activities were quantitated by phosphorimager analysis.
A common mechanism that triggers c-myc degradation is through its phosphorylation at threonine 58 (T58) by GSK3β (Hoang et al., (1995) Mol. Cell. Biol., 15:4031-4042; Sears et al., (2000) Genes Dev., 14:2501-2514; Gregory et al., (2003) J. Biol. Chem., 278:51606-51612). […]

T1 sequence (Q9WV60 whole entry): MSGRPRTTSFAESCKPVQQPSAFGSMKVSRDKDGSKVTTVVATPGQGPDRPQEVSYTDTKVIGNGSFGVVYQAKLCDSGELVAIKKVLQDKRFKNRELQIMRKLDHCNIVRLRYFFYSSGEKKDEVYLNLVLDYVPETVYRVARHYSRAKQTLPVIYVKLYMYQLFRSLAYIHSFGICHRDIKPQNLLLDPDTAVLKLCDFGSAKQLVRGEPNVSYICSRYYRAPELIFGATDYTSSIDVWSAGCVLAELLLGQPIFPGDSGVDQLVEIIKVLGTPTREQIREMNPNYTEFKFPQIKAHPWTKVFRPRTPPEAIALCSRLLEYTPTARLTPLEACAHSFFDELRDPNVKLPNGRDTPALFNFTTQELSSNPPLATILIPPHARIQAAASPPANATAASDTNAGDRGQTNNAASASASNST

C=C1[C@@H](O)[C@@H]2O[C@]3(CC[C@H](/C=C/[C@@H](C)[C@@H]4CC(C)=C[C@@]5(O[C@H](C[C@@](C)(O)C(=O)O)CC[C@H]5O)O4)O3)CC[C@H]2O[C@@H]1[C@@H](O)C[C@H](C)[C@H]1O[C@@]2(CCCCO2)CC[C@H]1C [okadaic acid]
GSK3β S9 phosphorylation in d2 EBs [1]: significantly increased S9 phosphorylation
GSK3β staining in the nucleus [2]: GSK3β staining in the nucleus disappeared

CC(C)C[C@@H](C=O)NC(=O)[C@H](CC(C)C)NC(=O)[C@H](CC(C)C)NC(=O)OCc1ccccc1 [MG132] (Cbz-Leu-Leu-Leu-aldehyde)
turnover of c-myc protein following LIF withdrawal [3]: blocked

CN1C(=O)/C(=C2\Nc3ccccc3\C2=N/O)c2ccc(Br)cc21 [MeBIO]
LY 294002 induced DE formation as determined by Sox17 expression ([4]; listed as MeBio): but not MeBio, blocks LY 294002 induced DE formation
LY 294002 induced DE formation as determined by Sox17 expression ([4]; listed as meBio): but not meBio, blocked LY 294002 induced DE formation

COC[C@@H]([C@H](O)[C@H](O)C(=O)NCC[C@H](C)c1nc(/C=C/C[C@@H]2O[C@]3(C[C@@H](O)[C@@H]2C)O[C@H]([C@H](C[C@H](O)[C@H](C)[C@H](O)[C@H](C)/C=C(C)/C(C)=C/C=C/C(C)=C\C#N)OC)[C@H](OP(=O)(O)O)C3(C)C)co1)N(C)C [Calyculin A]
GSK3β S9 phosphorylation in d2 EBs [1]: significantly increased S9 phosphorylation

Ic1cccc(CSc2nnc(-c3ccncc3)o2)c1 [GSK3β inhibitor II]
immunoprecipitated GSK3β kinase activity [5]: sensitive

O=C1Nc2cc(Br)ccc2/C1=C1/Nc2ccccc2/C1=N\O [BIO, 6-bromoindirubin-3′-oxime]
LY 294002 induced DE formation as determined by Sox17 expression [4]: blocks LY 294002 induced DE formation
